Marks after values point to notes of the source that are not given here.
Key:
[1] = 400 μg folate vs equimolar amounts, after 8 weeks of treatment; cited from earlier work
[2] = test system: rat liver homogenate; assay: In vitro glucose assay using rat liver homogenate; type: biochemical; settings: 100 μM glucose, 25 μM or 50 μM folates, 37° C., 1 hour
Description: The glucose concentration was determined after incubation at 37° C. for 1 hour.
(A) Folates at a concentration of 25 μM. (B) Folates at 50 μM. Control represents glucose concentration without folate treatment which is considered to be 100%. The results are presented as mean±SD (n=3), and the significance of the values was analyzed by one-way ANOVA followed by Tukey's test (p<0.05). *p<0.05, **p<0.01, […], ***p<0.0001.

[3] = test system: diabetic Wistar rats; assay: Oral glucose tolerance test (OGTT) in diabetic Wistar rats; type: in vivo; settings: for whole blood glucose values from baseline: 0-120 min
Description: Fasting blood sugar concentration was estimated.
Oral glucose tolerance test (OGTT). The test was performed by oral administration of glucose (2 g/kg body wt). Graph showing blood glucose concentration before (0 min) and 30, 60, 90, and 120 min after administration. Data are shown as the mean±SEM (n=6).

[4] = test system: diabetic Wistar rats; assay: Organ weight after long-term oral administration in diabetic Wistar rats; type: in vivo; parameters: unit not given here; settings: mean±SD (n=6)
Description: The results are presented as mean±SD (n=6), and the significance of the values was analyzed by one-way ANOVA followed by Tukey's test (p<0.05). *p<0.05, **p<0.01, ***p<0.001, ****p<0.0001.

[5] = test system: diabetic Wistar rats; assay: Organ histology (islets of the pancreas) in diabetic Wistar rats; type: in vivo; settings: long-term oral administration

Row | SMILES | serum folate concentrations compared to the folate group [1] [fold] | glucose concentration upon treatment [2] | time at which decline in whole blood glucose leveled off ([3]; OGTT) | whole blood glucose values from baseline ([3]; OGTT) | Organ weight, Adipose [4] | Organ weight, Brain [4] | Organ weight, Cecum matter [4] | Organ weight, Heart [4] | Organ weight, Kidney [4] | Organ weight, Liver [4] | Organ weight, Lungs [4] | Organ weight, Spleen [4] | Organ weight, Testes [4] | histology of islets of the pancreas / beta cells [5] | glucose tolerance ([3]; oral glucose 2 g/kg body wt)
1 | CN1c2c(nc(N)[nH]c2=O)NC[C@H]1CNc1ccc(C(=O)N[C@@H](CCC(=O)O)C(=O)O)cc1 [[6R,S]-5-methyltetrahydrofolate] | ~3 | – | – | – | – | – | – | – | – | – | – | – | – | – | –
2 | CN1c2c(nc(N)[nH]c2=O)NCC1CNc1ccc(C(=O)N[C@@H](CCC(=O)O)C(=O)O)cc1 (some centres unmarked) [5-methyltetrahydrofolate] | – | decreased | about 120 minutes | gradual decline | 2.77 ± 2.11** | 1.46 ± 0.18 | 4.33 ± 0.95 | 0.82 ± 0.23 | 2.12 ± 0.2 | 8.49 ± 2.52 | 1.93 ± 0.62 | 0.92 ± 0.35 | 2.31 ± 0.79 | Moderate hypertrophy of islets of the pancreas and moderate hyperplasia of beta cells | –
3 | Nc1nc(=O)c2c([nH]1)NCC(CNc1ccc(C(=O)N[C@@H](CCC(=O)O)C(=O)O)cc1)=N2 [dihydrofolate] | – | decreased | – | more gradual decline | 5.43 ± 1.75* | 1.64 ± .09 | 2.72 ± 0.51 | 0.88 ± 0.07 | 1.74 ± 0.21 | 10.68 ± 1.46 | 2.09 ± 0.18 | 1.09 ± 0.10 | 2.88 ± 0.27 | Severe hypertrophy of islets of the pancreas with hyperplasia of beta cells | greater effect
4 | Nc1nc(=O)c2nc(CNc3ccc(C(=O)N[C@@H](CCC(=O)O)C(=O)O)cc3)cnc2[nH]1 [synthetic folate] | – | no effect | – | did not show much declaim | 0.87 ± 0.60**** | – | 6.46 ± 1.49 | 0.68 ± 0.07 | 2.12 ± 0.46 | 7.35 ± 1.02 | 1.46 ± 0.38 | 0.66 ± 0.08 | 2.57 ± 0.95 | Moderate atrophy of islets of the pancreas with apoptosis of beta cells | –

From patent US20240398808A1, “DIHYDROFOLATE FOR HYPOGLYCEMIC ACTIVITY” (COUNCIL OF SCIENTIFIC AND INDUSTRIAL RESEARCH an india …, priority 2023, published 2024)
